Data as given in patent US20200375987A1, “METALLO-BETA-LACTAMASE INHIBITORS AND METHODS OF USE THEREOF” (priority 2018, published 2020).

Key:
VIM-2 = VIM-2 (Escherichia coli, UniProt Q5U7L7); assay: Enzyme activity: determination of IC50 (VIM-2); type: biochemical; settings: read-out: VIM2 IC50
[1] = tested on: Serratia marcescens expressing IMP-1 (CL5741); assay: Antibiotic potentiation activity: synergistic concentration (MITC95) with imipenem; type: cell-based; settings: imipenem 1 μg/mL; lowest concentration inhibiting 95% of growth; 35° C., 22-24 hours
Experimental: (§1) The bacterial strains tested included the clinical strains Escherichia coli expressing NDM-1 (CLB30005, CLB30016), Serratia marcescens expressing IMP-1 (CL5741), and Klebsiella pneumoniae expressing VIM-1 (IHMA599644). Inhibitor activity was measured in the presence and absence of imipenem in a 384-well microplate.
(§2) The clinical strains CLB30016, CL5741 and IHMA599644 were grown on trypticase soy agar containing 5% sheep's blood. The bacteria on agar plates were incubated at 35° C. with humidity overnight. The following day, individual colonies from each clinical strain were picked and resuspended in 5 mL saline to attain an OD600 of 0.14, 0.11, 0.15 and 0.13, for CLB30016, CL5741 and IHMA599644, respectively. These were further diluted 1:100 into 1.1× CAMHB and used to inoculate the test wells as described below.
(§3) Imipenem in 10 mM 3-(N-morpholino)propanesulfonic acid (MOPS, pH 7) was stored in single use aliquots at −80° C. […] On the day of the assay, 4 μl of antibiotic was added to 45 μl of bacteria followed by 1 μl of test compound and mixed by pipetting and with an orbital shaker. The concentration of antibiotic used in the assay was 1 μg/mL. Microplates were covered and incubated at 35° C. for 22 hours to 24 hours. At the end of the incubation, absorbance was determined using a spectrophotometer. The synergistic concentration of MBLI was determined by identifying the lowest concentration of test compound in the presence of a given concentration of antibiotic that was required to inhibit 95% of the growth of the bacteria. The results for Examples 1-209 are reported in Table 1, expressed as the concentration of compound that potentiated the action of antibiotic (imipenem) affecting 95% inhibition of bacterial growth (MITC95).

[2] = tested on: Klebsiella pneumoniae expressing VIM-1 (IHMA599644); assay: as above; type: cell-based; settings: imipenem 1 μg/mL; lowest concentration inhibiting 95% of growth; 35° C., 22-24 hours
Experimental: as §1, §2, §3

[3] = tested on: Escherichia coli expressing NDM-1 (CLB30016); assay: as above; type: cell-based; settings: imipenem 1 μg/mL; lowest concentration inhibiting 95% of growth; 35° C., 22-24 hours
Experimental: as §1, §2, §3

IMP-1 = IMP-1 (Serratia marcescens, UniProt P52699); assay: Enzyme activity: determination of IC50, fluorescence assay with CCF2-FA substrate (IMP-1); type: biochemical; settings: 2 pM enzyme, 1.25 μM CCF2-FA, 2 hours at 25° C.; read-out: IMP1 IC50
Chain of IMP-1 (P52699 19-246, looked up, species assumed): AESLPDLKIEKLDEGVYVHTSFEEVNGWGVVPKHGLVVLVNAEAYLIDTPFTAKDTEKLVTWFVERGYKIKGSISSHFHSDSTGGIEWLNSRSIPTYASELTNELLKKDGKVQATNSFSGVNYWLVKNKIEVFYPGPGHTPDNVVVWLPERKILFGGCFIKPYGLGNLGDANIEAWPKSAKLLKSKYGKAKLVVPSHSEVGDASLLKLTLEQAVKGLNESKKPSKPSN
Experimental: (§4) The Class B enzyme activities were measured in the presence of the test inhibitor in a fluorescence assay against a commercially available substrate consisting of a cephalosporin core linking 7-hydroxycoumarin to fluorescein (CCF2-FA). The enzyme (NDM-1, IMP-1 or VIM-1) and the substrate were diluted in 100 mM KH2PO4 buffer (pH 7) containing 0.005% Tween-20 and 10 μM ZnSO4. In the assay, the final concentration of enzyme was 1 pM, 2 pM and 30 pM for NDM-1, IMP-1 and VIM-1, respectively, and the final concentration of CCF2-FA was 1.25 μM. The test inhibitor was dissolved in dimethylsulfoxide and diluted 1:50 in the assay, resulting in a final concentration range of 20 μM to 0.00063 μM. In a 384-well microplate, the test inhibitor was incubated with the metallo-β-lactamase enzyme and the substrate for 2 hours at 25° C. Fluorescence at 460 nm following excitation at 405 nm was measured. The IC50 value was determined from semi-logarithmic plots of enzyme inhibition versus inhibitor concentration, with a curve generated using a 4-parameter fit.

[4] = tested on: P. aeruginosa MB9799 (efflux mutant, IMP-1); assay: Efflux: concentration of MBL inhibitor restoring susceptibility to imipenem (MITC95), efflux− strain; type: cell-based, Pseudomonas aeruginosa; settings: imipenem at 2 μg/mL in the presence of a class A, C, D serine β-lactamase inhibitor closely related to relebactam
Excerpt: (§5) In order to assess the contribution of efflux to lack of whole cell inhibition of metallo-beta-lactamase inhibitors of formula I, tool strains were constructed. The strain background is Pseudomonas aeruginosa PAO1. A wild-type (MB5919) and an isogenic strain in which multiple efflux pumps have been disrupted genetically were used. The MBL IMP-1, obtained from a clinical isolate was introduced into the strain pair by the following process:
(§6) Plasmid DNA (encoding IMP-1) was extracted from CL 5673 (IMP-1, P. aeruginosa clinical strain) by standard techniques. The plasmid DNA was transformed into parental MB5919 (oprD+, efflux+, inducible AmpC) and MB5890 (oprD+, efflux−, inducible AmpC) isogenic strains by electroporation. These transformed strains were plated onto cation-adjusted Muller-Hinton agar plates containing ceftazidime at 32 μg/mL (MB5919) and 16 μg/mL (MB5890) to select for those cells in which the IMP-1-expressing plasmid was introduced successfully, resulting in resistance to ceftazidime. Agarose-gel electrophoresis of PCR product for IMP-1 from the successful transformants was used to compare to control and to the original strain from which the plasmid was obtained, confirming transfer of the IMP-1 gene (data not shown).
(§7) The strain set was then used as a pair to determine the effect of metallo-β-lactamase inhibitors of Formula Ion the MIC of imipenem and/or ceftazidime. A fixed concentration of antibiotic is included in standard microbroth MIC tests, usually at the CLSI breakpoint concentration. A fixed amount of a class A/C beta-lactamase inhibitor is also included to inhibit the resident Pseudomonas AmpC enzyme. A serial titration of the metallo-β-lactamase inhibitor was included and the concentration of metallo-β-lactamase inhibitor which restores susceptibility of the strain to the included antibiotic was recorded. That concentration of metallo-β-lactamase inhibitor was then compared between the two strains to determine the fold difference between the efflux+(MB9798) and efflux−(MB9799) strains, which indicates n the extent to which the MBLi is subject to efflux.

[5] = tested on: P. aeruginosa MB9798 (efflux WT, IMP-1); assay: Efflux: concentration of MBL inhibitor restoring susceptibility to imipenem (MITC95), efflux+ strain; type: cell-based, Pseudomonas aeruginosa; settings: imipenem at 2 μg/mL in the presence of a class A, C, D serine β-lactamase inhibitor closely related to relebactam
Excerpt: as §5, §6, §7

VIM-1 = VIM-1 (Pseudomonas aeruginosa, UniProt A0A0F7KYQ8); assay: Enzyme activity: determination of IC50, fluorescence assay with CCF2-FA substrate (VIM-1); type: biochemical; settings: 30 pM enzyme, 1.25 μM CCF2-FA, 2 hours at 25° C.; read-out: VIM1 IC50
Experimental: as §4

NDM-1 = NDM-1 (Klebsiella pneumoniae, UniProt C7C422); assay: Enzyme activity: determination of IC50, fluorescence assay with CCF2-FA substrate (NDM-1); type: biochemical; settings: 1 pM enzyme, 1.25 μM CCF2-FA, 2 hours at 25° C.; read-out: NDM1 IC50
Chain of NDM-1 (C7C422 29-270, looked up, species assumed): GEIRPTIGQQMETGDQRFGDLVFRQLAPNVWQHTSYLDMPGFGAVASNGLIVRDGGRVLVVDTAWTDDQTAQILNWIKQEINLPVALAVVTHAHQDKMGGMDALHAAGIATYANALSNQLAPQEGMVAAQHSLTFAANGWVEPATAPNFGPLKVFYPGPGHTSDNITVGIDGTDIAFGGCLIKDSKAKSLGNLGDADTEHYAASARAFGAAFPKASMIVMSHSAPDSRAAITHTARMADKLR
Experimental: as §4

SMILES	IC50 (VIM-2)	CL5741 S.marcescens MITC95 uM IMP [1]	IHMA599644 K.pneumoniae MITC95 uM VIM [2]	CLB30016 E.coli MITC95 NDM [3]	IC50 (IMP-1)	MB9799 MITC95 P. aeruginosa Efflux Mutant [4]	MB9798 MITC95 P. aeruginosa Efflux WT [5]	IC50 (VIM-1)	IC50 (NDM-1)
NC[C@@H](O)CNS(=O)(=O)c1ccc(N2CCCn3ccnc32)c(-c2nnn[nH]2)c1S(N)(=O)=O [Example 16, (R)-N1-(3-amino-2-hydroxypropyl)-4-(6,7-dihydroimidazo[1,2-a]pyrimidin-8(5H)-yl)-3-(1H-tetrazol-5-yl)benzene-1,2-disulfonamide]	1.01 nM	0.39 µM	1.56 µM	0.10 µM	5.93 nM	0.78 µM	3.13 µM	0.38 nM	1.2 nM
C[C@H](CN)NS(=O)(=O)c1ccc(N2CCCn3ccnc32)c(-c2nnn[nH]2)c1S(N)(=O)=O [Example 17, (R)-N1-(1-aminopropan-2-yl)-4-(6,7-dihydroimidazo[1,2-a]pyrimidin-8(5H)-yl)-3-(1H-tetrazol-5-yl)benzene-1,2-disulfonamide]	1.11 nM	0.78 µM	1.56 µM	0.78 µM	2.17 nM	0.78 µM	1.56 µM	0.22 nM	0.36 nM
NC[C@H](O)CNS(=O)(=O)c1ccc(N2CCCn3ccnc32)c(-c2nnn[nH]2)c1S(N)(=O)=O [Example 18, (S)-N1-(3-amino-2-hydroxypropyl)-4-(6,7-dihydroimidazo[1,2-a]pyrimidin-8(5H)-yl)-3-(1H-tetrazol-5-yl)benzene-1,2-disulfonamide]	1.99 nM	0.39 µM	1.56 µM	0.10 µM	8.07 nM	0.78 µM	3.13 µM	0.76 nM	1.87 nM
NC[C@@H](O)CNS(=O)(=O)c1ccc(N2CCn3ccnc32)c(-c2nnn[nH]2)c1S(N)(=O)=O [Example 19, (R)—N1-(3-amino-2-hydroxypropyl)-4-(2,3-dihydro-1H-imidazo[1,2-a]imidazol-1-yl)-3-(1H-tetrazol-5-yl)benzene-1,2-disulfonamide]	9.8 nM	0.78 µM	3.13 µM	0.20 µM	12.1 nM	1.56 µM	6.25 µM	5.96 nM	1.03 nM
NCCNS(=O)(=O)c1ccc(N2CCn3ccnc32)c(-c2nnn[nH]2)c1S(N)(=O)=O [Example 20, N1-(2-aminoethyl)-4-(2,3-dihydro-1H-imidazo[1,2-a]imidazol-1-yl)-3-(1H-tetrazol-5-yl)benzene-1,2-disulfonamide]	15.1 nM	0.78 µM	3.13 µM	0.39 µM	9.68 nM	0.78 µM	6.25 µM	12.4 nM	1.7 nM
NS(=O)(=O)c1c(S(=O)(=O)N[C@@H]2CCNC2)ccc(N2CCCc3ccncc32)c1-c1nnn[nH]1 [Example 21, 4-(3,4-dihydro-1,7-naphthyridin-1(2H)-yl)-N1-[(3R)-pyrrolidin-3-yl]-3-(1H-tetrazol-5-yl)benzene-1,2-disulfonamide]	1.24 nM	0.78 µM	6.25 µM	0.20 µM	2.46 nM	1.56 µM	3.13 µM	0.22 nM	0.21 nM
NS(=O)(=O)c1c(S(=O)(=O)N[C@@H]2CCNC2)ccc(N2Cc3cccnc3C2)c1-c1nnn[nH]1 [Example 22, 4-(5,7-dihydro-6H-pyrrolo[3,4-b]pyridin-6-yl)-N1-[(3R)-pyrrolidin-3-yl]-3-(1H-tetrazol-5-yl)benzene-1,2-disulfonamide]	2.31 nM	3.13 µM	6.25 µM	0.78 µM	0.17 nM	1.56 µM	3.13 µM	0.59 nM	0.62 nM
NS(=O)(=O)c1c(S(=O)(=O)N[C@@H]2CCNC2)ccc(N2CCc3cccnc3C2)c1-c1nnn[nH]1 [Example 23, 4-(5,8-dihydro-1,7-naphthyridin-7(6H)-yl)-N1-[(3R)-pyrrolidin-3-yl]-3-(1H-tetrazol-5-yl)benzene-1,2-disulfonamide]	39 nM	12.50 µM	12.50 µM	3.13 µM	43.9 nM	6.25 µM	50.00 µM	21 nM	24.3 nM
